# Experimental data published in PubChem BioAssay AID179 (DTP/NCI, 2004).
# Where “and” joins values, the source holds several entries; their conditions need not be identical. Equal entries are not always repeated. Calls of active or inactive are those of the source.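 Rule for the calls: active = compounds giving half or more protection of infected cells from virus-caused growth loss, again on retest; inactive = the rest.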 Where a SMILES comes first, the peptide text is derived from it. The star is where a group is joined. Cbz = O=C(OCc1ccccc1)*
# System: CEM cells HIV-1 protection, formazan growth assay
# Assay: NCI AIDS Antiviral Assay
# Details: for IC50: measured here: growth of uninfected CEM cells
# In short: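 Protection of CEM cells against HIV-1 measured as cell growth via soluble formazan read-out, with five concentrations tested on both infected and uninfected cells; failure to protect may reflect toxicity.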
SMILES,EC50,IC50,outcome
O=c1c2c([nH]c3nccn13)CCC2,> 200 µM,> 200 µM,
CCOc1ccc(NC(=O)CCC(=O)NN)cc1,> 724 µM,603 µM,
COc1ccc(/C(Cl)=C(\C=O)c2ccccc2)cc1OC,,,inactive
Cc1ccccc1-n1c(SCC(=O)NC(=O)Nc2cccc(Cl)c2)nc2c(Br)cc(Br)cc2c1=O,> 200 µM,> 200 µM,
O=C(c1ccccc1)N1CCc2c([nH]c3ccccc23)C1,,,inactive
Cc1ccc(/C=C2/N=C(N/N=C\C(O)C(O)C(O)CO)NC2=O)cc1 (stereo not given),> 200 µM,110 µM,inactive
O=P(O)(O)c1ccc2c(c1)OCCOCCOCCOCCO2,> 200 µM,> 200 µM,
COc1cccc2c1C(=O)c1ccc3cc(CO)cc(O)c3c1C2=O,> 200 µM,1.12 µM,
Cc1c2cc(Cl)ccc2n2c(=O)c3ccccc3[nH]c(=O)c12,> 15.8 µM,> 15.8 µM,
Cc1nnc(NC(=O)c2cc(=O)c3ccccc3o2)s1,> 91.2 µM,> 91.2 µM,
COc1ccc(/C=C2\N=C(SC)N(CN3CCOCC3)C2=O)cc1,> 200 µM,29.5 µM,
CN(C)c1ccc(/C=C2\C=Nc3ccccc32)cc1,> 20.9 µM,14.1 µM,
c1ccc(-c2nnc(CCCCCCCCc3nnc(-c4ccccc4)o3)o2)cc1,> 200 µM,158 µM,
CC(=O)/C(=C\C1=CCCO1)C(=O)Nc1ccccc1C,> 26.3 µM,> 26.3 µM,
O=c1ccc2c(O)c3ccoc3cc2o1,> 110 µM,93.3 µM,
Cc1ccc(S(=O)(=O)OC(c2ccc(Cl)cc2Cl)C2OC(=O)c3ccccc32)cc1 (stereo not given),> 40.7 µM,> 40.7 µM,
O=[N+]([O-])c1ccc(C2=NOC(c3ccccc3)N2C23CC4CC(CC(C4)C2)C3)cc1 (stereo not given),> 200 µM,107 µM,
CCOC(=O)c1cnc2oc(-c3ccc(OC)cc3)nn2c1=O,,,inactive
O=C1/C(=C/c2cccs2)NC(=S)N1CN1CCOCC1,> 200 µM,34.7 µM,
NCC#CCNCCCN1CC1,> 200 µM,> 200 µM,
COC1/C=C/OC2(C)Oc3c(C)c(O)c4c(O)c(c(C=NNC(=O)C(CO)(c5ccccc5)c5ccccc5)c(O)c4c3C2=O)NC(=O)/C(C)=C/C=C/C(C)C(O)C(C)C(O)C(C)C(OC(C)=O)C1C (stereo not given),> 200 µM,32.4 µM,

SMILES,EC50,IC50,outcome
CCCC[N+](CCCC)(CCCC)C1=C([O-])C(F)(F)C1=O,> 200 µM,> 200 µM,
O=C1C=CC(=O)c2c1ccc1c3ccccc3n(Cc3ccccc3)c21,> 200 µM,3.24 µM,
Cc1ccccc1Nc1ccc([N+](=O)[O-])c2nonc12,> 83.2 µM,33.1 µM,
CCOC(=O)C(O)(CC1=NC(C(=O)OC)(C(=O)OC)C(c2cccc(C=O)c2)O1)C(=O)OCC (stereo not given),> 200 µM,> 200 µM,
O=C(CC(=O)c1ccccc1)C(=O)Nc1ccc(Cl)cc1,> 12 µM,> 12 µM,
CCCCCc1c(CCCC)c(=O)[nH]c2cc(CNCC(OC)OC)ccc12,> 200 µM,11 µM,
CCOC(=O)C1(C/C=C\CBr)CCCC1=O (stereo not given),> 200 µM,33.9 µM,
CCOC(=O)c1c(-c2ccc(O)c(OC)c2)c(C#N)c(=S)n(C2OC(COC(C)=O)C(OC(C)=O)C(OC(C)=O)C2OC(C)=O)c1-c1ccccc1 (stereo not given),> 200 µM,91.2 µM and 64.6 µM,
CO/C(=N\N=C\c1ccc(C(F)(F)F)cc1)c1ccncc1,> 117 µM,69.2 µM,
O=c1oc2cc(O)ccc2c(O)c1C(c1ccc2ccccc2c1)c1c(O)c2ccc(O)cc2oc1=O,,,inactive
Cc1ccc(NC(=O)CSc2nnc(-c3ccc(N=Cc4ccc(Cl)cc4)cc3)o2)cc1,> 282 µM,145 µM,
CCOC(=O)C1C(=O)CC(O)(c2ccccc2)C(C(=O)OCC)C1c1ccc(N(C)C)cc1 (stereo not given),> 200 µM,4.07 µM,
C[C@H](C/C=C/C(C)(C)O)[C@H]1CC[C@@]2(C)[C@@H]3CC[C@H]4C(C)(C)[C@@H](O)CC[C@@]45C[C@@]35CC[C@]12C,> 200 µM,4.68 µM,
CCOC(=O)c1nc(SC)sc1NC(=O)c1ccccc1Cl,> 200 µM,9.55 µM,
O=C(O)CCN(CCC(=O)O)CCN(CCC(=O)O)CCC(=O)O,> 589 µM,> 589 µM,
CN1CCC23c4ccccc4NC1C21CCN(C)C3Nc2ccccc21,> 724 µM,617 µM,
OC1(c2ccccc2)CC2CCC(C1)N2CCCC1(c2ccc(F)cc2)OCCO1 (stereo not given),> 200 µM,162 µM,
S=CN1CCCCC1,> 200 µM,> 200 µM,
O=c1[nH]c(=O)n(C2CC(O)C(CO)O2)cc1C#Cc1c(F)c(F)c(F)c(F)c1F (stereo not given),> 603 µM,110 µM,
CS(=O)(=O)N1CC(CCl)c2ccc([N+](=O)[O-])cc21 (stereo not given),91.2 µM,> 200 µM,
CCCN=C(NC(=O)c1ccc(Cl)cc1)SC,> 200 µM,> 200 µM,

SMILES,EC50,IC50,outcome
Cc1cn(C2CC(F)C(CO)O2)c(=O)[nH]c1=O (stereo not given),0.011 µM,2 µM,
N#CCC(=O)N/N=C(/C(=O)Nc1ccccc1)C1C(=O)N(c2ccccc2)N=C1N (stereo not given),> 170 µM,> 170 µM,
CC[P+](C#Cc1ccccc1)(c1ccccc1)c1ccccc1,> 20 µM,0.49 µM,
Cc1ccc(S(=O)(=O)ON2C(=O)c3cccc4cc([N+](=O)[O-])cc(c34)C2=O)cc1,> 63.1 µM,> 63.1 µM,
CC12c3ccccc3C(OC=O)(c3ccccc31)C1(C)c3ccccc3C2(OC=O)c2ccccc21,> 3.09 µM,> 3.09 µM,
Cc1cc(C)nc(NS(=O)(=O)c2ccc(Nc3c4ccccc4nc4c(C(=O)NCCCN(CCO)CCO)cccc34)cc2)n1,> 200 µM,6.46 µM,
O=C1CCCC(=O)NNC(=O)Nc2ccc(cc2)Cc2ccc(cc2)NC(=O)NN1,> 30.9 µM,> 30.9 µM,
CC(C)(C)c1ccc(OC(=O)Nc2ccc(O)c(C(=O)O)c2)cc1,> 200 µM,> 200 µM,
CC(=O)c1c2c(cc3c1CC1(C3)Cc3cc4c(c(C(=O)O)c3C1)CCCC4)CCCC2 (stereo not given) (tested in a mixture with another compound),> 200 µM,38.9 µM,
COC(=O)C(CCC1(C)OCCO1)C(C)=O (stereo not given),31.6 µM,251 µM,
CCN(CC)CCCC(C)Nc1cc(/C=C/c2ccc(Cl)cc2)nc2cc(N(C)C)ccc12 (stereo not given),> 145 µM,0.871 µM,
CN(C)CCN(C)CCC(=O)/C=C/c1ccccc1,,,inactive
CN(C)C(=S)SSSC(=S)N(C)C,> 20 µM,0.513 µM,
COC1(C)CP(=O)(OC(C)C)CC(C)=C1Cl (stereo not given),> 20 µM,7.59 µM,
Cc1cn([C@H]2C(CO)[C@@H](CO)C2(C)C)c(=O)[nH]c1=O (stereo not given in full),> 933 µM,> 933 µM,
Nc1nc(Cl)cc(NCC2(CO)CC=CC2)n1,> 200 µM,> 200 µM,
Cc1ccccc1NC(=O)CC(=O)NNCC(=O)Nc1nnc(-c2ccccc2)s1,> 61.7 µM,46.8 µM,
CC(CC(N)C(=O)O)C(=O)O (stereo not given),> 200 µM,> 200 µM,
N#CC(C(=O)/C(=N/NC(=O)c1ccccc1O)C(C#N)c1ccccc1)c1ccccc1 (stereo not given),> 589 µM,10.7 µM,
Cc1ccc(C(=O)O/N=C2/CCCCC2CN(C)C)cc1 (stereo not given),,,inactive
COCCOCCOCCOCCOCCOCCOCCOCCOCCOCCOCCOCCOCCOCCOCCOCCOCC(=O)N(CCn1ccc(NC(c2ccccc2)(c2ccccc2)c2ccccc2)nc1=O)CCn1ccc(NC(c2ccccc2)(c2ccccc2)c2ccccc2)nc1=O,20 µM,22.9 µM,

SMILES,EC50,IC50,outcome
NC(=O)CS(=O)(=O)NC(N)=O,> 200 µM,> 200 µM,
NCCCN1CCN(CCCNc2ccc3ncn4c5ccccc5c(=O)c2c34)CC1,> 25.1 µM,1.2 µM,
NC(=O)NN=C1CSSC1,18.6 µM,70.8 µM,
O=C(C=P(c1ccccc1)(c1ccccc1)c1ccccc1)CC(=S)CC(=O)C=P(c1ccccc1)(c1ccccc1)c1ccccc1,,,inactive
O=C1C2=C(c3ccccc31)C(c1ccc(F)cc1)N1C(=O)CCSC1=N2 (stereo not given),> 37.2 µM,> 37.2 µM,
CCOC(=O)Cc1cc(=O)n(C)c2ccccc12,> 200 µM,> 200 µM,
CC(=O)c1c(-c2cccc3ccccc23)c(C#N)c(=S)n(C2OC(CO)C(O)C(O)C2O)c1-c1ccccc1 (stereo not given),> 200 µM,24 µM and > 200 µM,
C[n+]1[se]c2ccccc2c1Cl,> 186 µM,7.24 µM,
Oc1ccccc1C(Nc1nc2ccccc2s1)c1ccc2cccnc2c1O (stereo not given),> 33.9 µM,2.57 µM,
COc1cc(OC)c2c(O)c(S(=O)(=O)c3ccc(C)cc3)c(=O)oc2c1,> 200 µM,> 200 µM,
COc1cc(C=Nc2ccc(Oc3ccc(Cl)cc3)c(Cl)c2)cc(OC)c1OC,> 200 µM,30.9 µM,
CCOP(N)(=O)c1ccccc1 (stereo not given),> 200 µM,> 200 µM,
CCCCCCCCCCCCCC(=O)OCC1OC(n2cc(F)c(=O)[nH]c2=O)C(NC(=O)OCc2ccccc2)C(OC(=O)CCCCCCCCCCCCC)C1O (stereo not given),> 11.7 µM,> 11.7 µM,
CN(/N=C/C=N/N(C)C1=NCCN1)C1=NCCN1,> 200 µM,> 200 µM,
O=C(NCCCN(CCCCN(CCCNC(=O)C(F)(F)F)Cc1ccccc1)Cc1ccccc1)C(F)(F)F,> 200 µM,37.2 µM,
Cc1ccccc1NC(=O)C(=O)CC(=O)C1CCOC1=O (stereo not given),,,inactive
Cc1cc2c(s1)C(N)CC2=O (stereo not given),> 200 µM,> 200 µM,
CCOC(=O)C(NC(=O)CC)(C(F)(F)F)P(=O)(OCC)OCC (stereo not given),> 200 µM,> 200 µM,
CCOC(=O)CNC(=O)C(C)NC(=O)C(NC(=O)OCc1ccccc1)C(C)C (stereo not drawn) (Cbz-Val-Ala-Gly-OEt; configuration not given here),> 200 µM,115 µM,
O=C(CN(c1ccc(S(=O)(=O)O)cc1)c1ccc(S(=O)(=O)O)cc1)Nn1cnc2ccc(S(=O)(=O)N(c3ccc(S(=O)(=O)O)cc3)c3ccc(S(=O)(=O)O)cc3)cc2c1=O,> 100 µM,95.5 µM,
COc1cccc(/C=N/[N-]C(N)=O)c1[O-].[Cu+2].[OH3+].c1ccc(-c2ccccn2)nc1,,,inactive
